# Test results from patent US20160068571A1, “THERAPEUTIC AGENT FOR CARDIAC TAMPONADE” (Research Institute for Protein Science Co., priority 2013, published 2016).
# Where no end group is shown, it is not given here.
# Columns and labels:
# Format in all cases: in vivo, Vietnamese minipigs
# [1] = system: protein HMGB-1; assay: Plasma HMGB-1 in porcine cardiac tamponade model; conditions: after cardiac tamponade; AcPepA 4 mg/kg iv; FIG. 4C
# Protocol: (§1) The animals were randomly allocated to either of three experimental groups. Group 1 (n=6) served as the sham^-operated group to which the same time-frame and sampling conditions as in the groups of 2 (n=7) and 3 (n=6) were applied, but without causing cardiac tamponade. Left lateral thoracotomy was performed in all groups. In the groups which developed cardiac tamponade, namely, in the group not treated with AcPepA (herein also referred to as “non-treated group”) and the group treated with AcPepA (herein also referred to as “treated group”), a cannula was fixed into the pericardial cavity. […] After elapse of this period, the fluid was removed from the pericardial cavity and the animals were monitored for 180 minutes post-tamponade. […]
# (§2) Plasma concentrations of protein HMGB-1 were determined with a commercially available protein HMGB-1 ELISA kit (Shino-Test Corporation, Kanagawa, Japan). Plasma levels of big-endothelin, a 38 amino acid precursor protein of endothelin-1 (ET-1), were determined with a commercially available kit (Biochemica Hungaria Kft., Budapest, Hungary). Plasma histamine concentrations were determined by commercially available enzyme-linked immunoassay (Quantikine ultrasensitive EIA kit for histamine; Biomedica Hungaria Kft, Budapest, Hungary).
# [2] = system: histamine; assay: Plasma histamine in porcine cardiac tamponade model; conditions: 15 minutes of the post-tamponade phase; AcPepA 4 mg/kg iv; FIG. 4A
# Protocol: as §1, §2
# [3] = system: acute porcine model of experimental cardiac tamponade; assay: Macro-hemodynamic measurements in acute porcine model of experimental cardiac tamponade; conditions: for central venous pressure: FIG. 2A; for global end-diastolic volume index: FIG. 2B; for superior mesenteric artery blood flow: FIG. 3A; for heart rate: FIG. 2C
# Protocol: Inbred Vietnamese minipigs of both sexes (n=19, weighing 24±3 kg) were fasted for twelve (12) hours preoperatively, but received water ad libitum. Anesthesia was induced with a mixture of ketamine (20 mg/kg) and xylazine (2 mg/kg) im and maintained with a continuous infusion of propofol (50 μL/min/kg iv; 6 mg/kg/hr). After endotracheal intubation, the animals were mechanically ventilated with the tidal volume set at 9±2 mL/kg, and the respiratory rate was adjusted to maintain the end-tidal pressure of CO2 and PaCO2 in the range of 35 to 45 mmHg. Positive end-expiratory pressure was not applied during the period of cardiac tamponade.
# The animals were placed in a supine position on an electric heating pad for maintenance of body temperature between 36 and 37° C., and received an infusion of Ringer's lactate at a rate of 10 mL/kg/h during the experiment. The right femoral artery and jugular vein were cannulated for the measurement of mean arterial pressure (“MAP”) and cardiac output (“CO”) by thermodilution (PICCO catheters, PULSION Medical Systems, Germany), and for fluid or drug administration, respectively. […] An ultrasonic flow probe (Transonic Systems Inc., Ithaca, N.Y., U.S.A.) was placed around the exposed SMA to measure the mesenteric blood flow. In all protocols, the animals were monitored continuously, arterial blood gases were regularly checked (Cobas b121, Roche, Austria), and a period of 30 minutes was allowed for recovery from surgery.
# The animals were randomly allocated to either of three experimental groups. Group 1 (n=6) served as the sham^-operated group to which the same time-frame and sampling conditions as in the groups of 2 (n=7) and 3 (n=6) were applied, but without causing cardiac tamponade. Left lateral thoracotomy was performed in all groups. In the groups which developed cardiac tamponade, namely, in the group not treated with AcPepA (herein also referred to as “non-treated group”) and the group treated with AcPepA (herein also referred to as “treated group”), a cannula was fixed into the pericardial cavity. A pericardial tamponade was induced for 60 minutes by the intrapericardial administration of colloid solution, while the mean artery pressure was kept in the interval of 40 to 45 mmHg. After elapse of this period, the fluid was removed from the pericardial cavity and the animals were monitored for 180 minutes post-tamponade. Group 3 (the treated group) was treated with AcPepA (a single administration of 4 mg/kg in 5 mL saline iv into the jugular vein in a 5-minute infusion) after 45 minutes of cardiac tamponade. The beginning of tamponade is denoting 0 minute. Vehicle (saline) administration was applied in the groups of 1 and 2 by the same protocol.
# Central venous pressure (“CVP”) and blood flow signals were continuously monitored and automatically registered with a computerized data-acquisition system (SPELL Haemosys; Experimetria Ltd., Budapest, Hungary). Mean arterial pressure, cardiac output and heart rate were measured with the PICCO Plus monitoring system (PULSION Medical Systems, Germany) and the global end-diastolic volume index (“GEDI”) was calculated with the PICCO system. Incidentally, central venous pressure was measured in each animal to exclude the influence of these factors, in parallel with the standard ventilation and fluid replacement protocols
# [4] = system: whole blood superoxide production; assay: Whole blood superoxide production in porcine cardiac tamponade model; conditions: early stage of the post-tamponade phase; AcPepA 4 mg/kg iv; FIG. 5B
# Protocol: The animals were randomly allocated to either of three experimental groups. Group 1 (n=6) served as the sham^-operated group to which the same time-frame and sampling conditions as in the groups of 2 (n=7) and 3 (n=6) were applied, but without causing cardiac tamponade. Left lateral thoracotomy was performed in all groups. In the groups which developed cardiac tamponade, namely, in the group not treated with AcPepA (herein also referred to as “non-treated group”) and the group treated with AcPepA (herein also referred to as “treated group”), a cannula was fixed into the pericardial cavity. A pericardial tamponade was induced for 60 minutes by the intrapericardial administration of colloid solution, while the mean artery pressure was kept in the interval of 40 to 45 mmHg. After elapse of this period, the fluid was removed from the pericardial cavity and the animals were monitored for 180 minutes post-tamponade. […]
# During the measurements, 10 μL whole blood was added to 1 mL Hank's solution (PAA Cell Culture Company) and the mixture was kept at 37° C. until assay. The chemiluminometric response was measured with a Lumat LB9507 luminometer (Berthold, Germany) during a 30 minute period after addition of 100 μL of lucigenin.
# [5] = system: big-endothelin; assay: Plasma big-endothelin in porcine cardiac tamponade model; conditions: after cardiac tamponade; AcPepA 4 mg/kg iv; FIG. 4B
# Protocol: as §1, §2
# [6] = system: mucosal microcirculation of the small intestine; assay: Intravital videomicroscopy of the intestinal microcirculation in porcine cardiac tamponade model; conditions: end of the post-tamponade phase; AcPepA 4 mg/kg iv; FIG. 3B
# Protocol: as §1
# An intravital orthogonal polarization spectral imaging technique (Cytoscan A/R, Cytometrics, Philadelphia, Pa., USA) was used for noninvasive visualization of the mucosal microcirculation of the small intestine. […] A 10× objective lens was placed onto the serosal surface of the […], and microscopic images were recorded with an S-VHS video recorder 1 (Panasonic AG-TL 700, Matsushita Electric Ind. Co. Ltd, Osaka, Japan). Quantitative assessment of the microcirculatory parameters was performed off-line by frame-to-frame analysis of the videotaped images. […]
# [7] = system: myeloperoxidase; assay: Small intestinal myeloperoxidase activity in porcine cardiac tamponade model; conditions: end of the experiment; AcPepA 4 mg/kg iv; FIG. 5A
# Protocol: as §1
# The activity of myeloperoxidase, a marker of activation of polymorphonuclear leukocyte, was measured by using ileal biopsy samples according to the method of Kuebler et al. (for review see Kuebler W M, Abels C, Schuerer L, et al: Measurement of neutrophil content in brain and lung tissue by a modified myeloperoxidase assay. Int J Microcirc Clin Exp 1996; 16:89-97). […] Levels of myeloperoxidase were calculated via a calibration curve prepared with an myeloperoxidase standard (Sigma-Aldrich GmbH, Germany). […] Myeloperoxidase activities of such samples were measured as described above, and such data were referred to the protein content.
# [8] = after relief of cardiac tamponade, AcPepA 4 mg/kg iv
# [9] = during the period of cardiac tamponade, treated group vs sham-operated group
substance,measurement,setting,value
"AcPepA: 17 amino acid peptide (Ala Ser Gly Ala Pro Ala Pro Gly Pro Ala Gly Pro Leu Arg Pro Met Phe), N-terminal alanine acetylated; C5A antagonist (Ac-ASGAPAPGPAGPLRPMF)",plasma levels of protein HMGB-1,[1],significant low values as compared with in the non-treated group and also showed the same values as in the sham-operated group
same,histamine levels in blood plasma,[2],decreased significantly in the treated group as compared with in the non-treated group and showed the same values as in the sham-operated group
same,central venous pressure,[3]; [8],significant high values as compared with in the non-treated group and also showed the same values as in the sham-operated group
same,global end-diastolic volume index,[3]; [8],significant high values as compared with in the non-treated group and also showed the same values as in the sham-operated group
same,mean arterial pressure,"[3]; after relief of tamponade, AcPepA 4 mg/kg iv single dose after 45 minutes of tamponade, FIG. 1A",significantly high values as compared with in the non-treated group and also showed the same values as in the sham-operated group
same,cardiac output,"[3]; after relief of tamponade, AcPepA 4 mg/kg iv, FIG. 1B",not affected
same,superior mesenteric artery blood flow,"[3]; after relief of tamponade, AcPepA 4 mg/kg iv",increased significantly after relief of tamponade as compared with in the sham-operated group
same,decline in cardiac output,"[3]; during 60 minutes of cardiac tamponade, treated group (AcPepA 4 mg/kg iv after 45 minutes of tamponade), vs sham-operated group, FIG. 1B",65%
same,heart rate,"[3]; during cardiac tamponade, treated group vs sham-operated group",significant increase in heart rate
same,central venous pressure,[3]; [9],significant increase of central venous pressure
same,global end-diastolic volume index,[3]; [9],significant decrease of the global end-diastolic volume index
same,superior mesenteric artery blood flow,[3]; [9],significant decrease in the superior mesenteric artery blood flow
same,heart rate,"[3]; post-tamponade period, AcPepA 4 mg/kg iv",significant decrease in the post-tamponade period as compared with in the non-treated group
same,whole blood superoxide production,[4],low as compared with in the non-treated group and also showed the same values as in the sham-operated group
same,plasma big-endothelin levels,[5],low values as compared with in the non-treated group and also showed the same values as in the sham-operated group
same,average red blood cell verocity,[6],increased significantly from the baseline level and also as compared with in the non-treated group
same,myeloperoxidase activity in small intestine tissue samples (polymorphonuclear leukocyte accumulation),[7],significant low values in the treated group as compared with in the non-treated group and also showed the same values as in the sham-operated group
